Literature values in US10653698B2, “Methods of improving myocardial performance in Fontan patients using udenafil compositions” (priority 2014, dated 2020).

Key:
[1] = test system: children and young adults with single-ventricle physiology after the Fontan operation; conditions: Shabanian et al. 2013; cited from earlier work
[2] = test system: patients with Fontan circulation; conditions: short term, once daily dosing; cited from earlier work

## CCCc1nn(C)c2c(=O)[nH]c(-c3cc(S(=O)(=O)N4CCN(C)CC4)ccc3OCC)nc12 [sildenafil]
[1]
  ventricular systolic elastance: increased
  ventriculo-arterial coupling: improved

## CN1CC(=O)N2[C@H](c3ccc4c(c3)OCO4)c3[nH]c4ccccc4c3C[C@@H]2C1=O [tadalafil]
[2]
  exercise capacity: unchanged
  ventilatory efficiency and oxygen saturation: improved
